Measurements from patent US20200016134A1, “COMPOSITIONS AND METHODS FOR TREATING SUBSTANCE ABUSE DISORDERS” (EMBERA NEUROTHERAPEUTICS, INC., priority 2016, published 2020).

Legend:
rats = conditions: Goeders et al., cited from earlier work
adult male Wistar rats [1] = assay: Intravenous cocaine self-administration under a multiple, alternating schedule of food reinforcement and cocaine self-administration; type: in vivo, rat; conditions: for cocaine self-administration and reinstatement of extinguished cocaine seeking: pretreatment with the single drug, summary of the studies
Procedure: Adult male Wistar rats were trained under a multiple, alternating schedule of cocaine and food self-administration. This schedule consisted of alternating periods of cocaine access and food reinforcement. In some instances, as described further below, three doses of cocaine (0.125, 0.25, or 0.50 mg/kg/infusion) were tested. Rats were also periodically trained with saline substitution (cocaine extinction) and food extinction during the same session.
More specifically, adult male Wistar rats were implanted with chronic jugular catheters. Following recovery from surgery, the rats were trained to respond under a multiple, alternating schedule of food reinforcement and cocaine self-administration. Food-maintained responding was used to control for the non-specific motor effects of the various treatments. During the food component of the schedule, the stimulus light located above the food response lever was illuminated to indicate the availability of food reinforcement. […] A 25-second timeout followed the delivery of each food pellet. During this timeout, the stimulus light was darkened and responses on the food lever were counted but had no scheduled consequences. Responding on the other (cocaine) lever during the food component also had no scheduled consequences. […] Following 15 minutes of access to food, all stimulus lights in the chamber were darkened for a 1-minute timeout. Following the timeout, the stimulus light above the cocaine response lever was illuminated to indicate the availability of cocaine (0.125, 0.25, or 0.5 mg/kg/infusion). […] A 20-second timeout period followed each infusion. […] After 15 minutes of access to cocaine and a 1-minute timeout, the rats were again allowed 15 minutes access to the food component of the schedule. Access to food and cocaine alternated in this manner every 15 minutes during the two hour behavioral sessions so that each rat was exposed to food and cocaine for four 15-minute periods each. Each behavioral session began with 15 minutes access to either food or cocaine, and this alternated daily. Stable baselines of responding were established when the total number of cocaine and food presentations, as well as the number of presentations during each of the four exposures each session, varied less than 10% for three consecutive sessions. At least three different doses of cocaine (e.g., 0.125, 0.25, and 0.5 mg/kg/infusion) were tested. Rats were first trained to self-administer 0.25 mg/kg/infusion, which was the standard dose of cocaine used. When responding stabilized, the dose was changed to 0.125 or 0.5 mg/kg/infusion as appropriate.
Once stable baselines of responding were obtained, dose-response curves for the various compounds were individually generated for each rat. Rats were treated with each dose at least twice with a minimum of two days of baseline cocaine self-administration interspersed between each test. Each group of rats was tested with only two of the test compounds to minimize potential carryover effects.

adult male Wistar rats [2] = assay: Cue-induced reinstatement of extinguished cocaine seeking (model of relapse); type: in vivo, rat; conditions: FIG. 11; chronic metyrapone 50 mg/kg ip, once per day for 14 days
Procedure: Training to self-administer cocaine: In one model, rats were exposed to alternating 15-minute periods of access to cocaine self-administration and food reinforcement. Food was used to control for potential nonspecific, ataxis effects of the drugs and combinations. […] In this model, rats are trained to self-administer cocaine and the ability of conditioned cues in the environment to reinstate extinguished responding is assessed and taken as a measure of relapse.
Cue-induced Reinstatement of Extinguished Cocaine Seeking: The experiments described herein were designed to investigate whether or not drug combinations identified as effective in reducing cocaine self-administration would also block the ability of conditioned cues to reinstate extinguished cocaine-seeking behavior. Adult male Wistar rats were implanted with chronic jugular catheters and trained to self-administer cocaine (0.25 mg/kg/infusion) by pressing one of the response levers in the experimental chamber (i.e., the “active” or “cocaine” lever) under a fixed-ratio four (FR4) schedule of reinforcement during daily 2-hour sessions conducted 5 days per week. At the start of each session, both levers were extended into the chamber and the stimulus light above the active lever was illuminated to indicate the availability of cocaine. […] A 20-second timeout period followed each infusion. […]

[3] = Phase I single- and multiple-rising dose study: plasma pharmacokinetics; conditions: human, in vivo
Procedure: METHODS: This was a single- and multiple-rising dose study. Healthy volunteers who smoke, aged 18-65, received a single AM dose on Day 1, BID dosing on Days 3-9 and a single AM dose on Day 10. Three sequential dose cohorts of 8 subjects (6 drug, 2 placebo) received the following doses of MET and OX, respectively: 270 and 12 mg; 540 and 24 mg; and 720 and 24 mg. Total daily doses were double these amounts on BID dosing days. Primary outcomes were safety and pharmacokinetics of MET, its active metabolite (metyrapol), and OX. Safety measures included vital signs, ECGs an standard safety labs. Cortisol and other HPA axis parameters were monitored closely throughout the study.

male Wistar rats = assay: Forced Swim Test (FST), animal model of depression
[4] = FIG. 3, low, ineffective doses alone: alprazolam 0.2-2 mg/kg ip, ketoconazole 5-75 mg/kg ip
[5] = FIG. 7, high dose alone: metyrapone 25-175 mg/kg ip, alprazolam 1-5 mg/kg ip
[6] = FIG. 7, low, ineffective doses alone: metyrapone 25-50 mg/kg ip, alprazolam 0.5-2 mg/kg ip
[7] = FIG. 8, high dose alone: muscimol 1-4 mg/kg ip, CP-154,526 10-80 mg/kg ip
[8] = FIG. 8, low, ineffective doses alone: muscimol 0.5-2.0 mg/kg ip, CP-154,526 5-25 mg/kg ip
[9] = FIG. 9, high dose alone: muscimol 1-4 mg/kg ip, metyrapone 25-175 mg/kg ip

| SMILES | cocaine self-administration (number of cocaine infusions) (adult male Wistar rats [1]; [4]) | cocaine self-administration (number of cocaine infusions) (adult male Wistar rats [1]; [5]) | cocaine self-administration (number of cocaine infusions) (adult male Wistar rats [1]; [6]) | cocaine self-administration and reinstatement of extinguished cocaine seeking (adult male Wistar rats [1]; rats) | cocaine self-administration (infusions, percentage of baseline) (adult male Wistar rats [1]; [7]) | cocaine self-administration (infusions, percentage of baseline) (adult male Wistar rats [1]; [8]) | cocaine self-administration (infusions, percentage of baseline) (adult male Wistar rats [1]; [9]) | intravenous cocaine self-administration (rats; pretreatment) | other results |
| --- | --- | --- | --- | --- | --- | --- | --- | --- | --- |
| Cc1nnc2n1-c1ccc(Cl)cc1C(c1ccccc1)=NC2 [alprazolam] | did not significantly affect cocaine self-administration | reduced cocaine self-administration | did not significantly affect cocaine self-administration | decrease cocaine self-administration and the reinstatement of extinguished cocaine seeking | – | – | – | – | responding maintained by food and cocaine (rats; multiple schedule of iv cocaine and food reinforcement, initial testing, 1993): reduced responding maintained by both food and cocaine |
| NCc1cc(=O)[nH]o1 [muscimol] | – | – | – | – | reduced cocaine self-administration | did not significantly affect cocaine self-administration | reduced cocaine self-administration | – | – |
| CCCCN(CC)c1nc(C)nc2c1c(C)cn2-c1c(C)cc(C)cc1C [CP-154,526] | – | – | – | decrease cocaine self-administration and the reinstatement of extinguished cocaine seeking | reduced cocaine self-administration | did not significantly affect cocaine self-administration | – | – | cocaine self-administration (infusions, percentage of baseline) (adult male Wistar rats [1]; FIG. 6, high dose alone: CP-154,526 10-80 mg/kg ip, oxazepam 5-25 mg/kg ip): reduced cocaine self-administration; cocaine self-administration (infusions, percentage of baseline) (adult male Wistar rats [1]; FIG. 6, low, ineffective doses alone: CP-154,526 5-25 mg/kg ip, oxazepam 5-25 mg/kg ip): did not significantly affect cocaine self-administration |
| CC(C)(C(=O)c1cccnc1)c1cccnc1 [metyrapone] | – | reduced cocaine self-administration | did not significantly affect cocaine self-administration | decrease cocaine self-administration and the reinstatement of extinguished cocaine seeking | – | – | reduced cocaine self-administration | significant dose-related decreases | plasma corticosterone (rats; pretreatment, 1996): significant dose-related decreases; cocaine seeking (responding on the active lever during reinstatement) (adult male Wistar rats [2]): reduced cocaine seeking to levels seen when only saline was delivered; t1/2, mean [3]: 1.887 h; cocaine self-administration (number of cocaine infusions) (adult male Wistar rats [1]; FIG. 1A, high dose alone: metyrapone 25-175 mg/kg ip, oxazepam 5-80 mg/kg ip): reduced cocaine self-administration; immobility time (male Wistar rats; chronic administration, single drug, Met50 group (metyrapone 50 mg/kg)): showed a lessening of immobility time; group means of immobility compared with vehicle (tolerance) (male Wistar rats; chronically treated groups that received only Ox or Met): equal to or exceeded the vehicle |
| CC(=O)N1CCN(c2ccc(OCC3COC(Cn4ccnc4)(c4ccc(Cl)cc4Cl)O3)cc2)CC1 (stereo not drawn) [ketoconazole] | did not significantly affect cocaine self-administration | – | – | decrease cocaine self-administration and the reinstatement of extinguished cocaine seeking | – | – | – | reduced cocaine self-administration | cocaine- or food-maintained responding (adult male Wistar rats [1]; ketoconazole 12.5 mg/kg tested alone): no effect; cocaine self-administration (number of cocaine infusions) (adult male Wistar rats [1]; rat, in vivo): did not significantly affect cocaine self-administration; minimally effective dose (reduces cocaine self-administration by at least 50% without affecting food-maintained responding) (adult male Wistar rats [1]; rats): 25 mg/kg |
